The numbers were not newly measured in patent US20210008209A1, “COMBINATION THERAPY FOR TTR AMYLOIDOSIS” (Corino Therapeutics, Inc., priority 2018, published 2021), which cites them from elsewhere.

For one data set, the target named is T1, TTR (Homo sapiens, UniProt P02766).
T1 construct: host or cells: human plasma

For data set [1], the system named is TTR native tetramer. The note with it: mice.
Data set [2] deals with T2, TTR native tetramer (Homo sapiens, UniProt P02766).
T2 construct: host or cells: humans (in vivo)
The note with it: humans.

For `Cc1ccc(C(=O)c2cc(O)c(O)c([N+](=O)[O-])c2)cc1` [Tolcapone, tolcapone], the “binding to TTR in human plasma” value at TTR is reported as “binds specifically to TTR”. Besides, the “stabilization of the native tetramer in vivo” value in the data set with TTR native tetramer [1] and at TTR native tetramer [2] was “stabilizes the native tetramer” each time. In addition, the TTR cytotoxicity entry in the data set with TTR cytotoxicity is listed as “inhibits TTR cytotoxicity”.
